From US20140343049A1, “DIHYDROFURAN DERIVATIVES AS INSECTICIDAL COMPOUNDS” (SYNGENTA PARTICIPATIONS AG, priority 2011, published 2014) come the findings set out here.

Some results are limits rather than exact numbers.

What all share (assay type): in vivo
Experiment [1] relates to Diabrotica balteata (corn root worm). Nature of the experiment: Diabrotica balteata L2 larvae test on artificial diet. The settings on record: 120 h, 200 ppm (concentration in well 18 ppm), 5 days, larval mortality and growth regulation. As to the method:
A 24-well microtiter plate (MTP) with artificial diet was treated with test solutions at an application rate of 200 ppm (concentration in well 18 ppm) by pipetting. After drying, the MTPs were infested with L2 larvae (6-10 per well). After an incubation period of 5 days, samples were checked for larval mortality and growth regulation.
A 24-well microtiter plate (MTP) with artificial diet was treated with test solutions at an application rate of 12.5 ppm (concentration in well 18 ppm) by pipetting. After drying, the MTP's were infested with L2 larvae (6-10 per well). After an incubation period of 5 days, samples were checked for larval mortality and growth regulation.

Experiment [2] has as its system Plutella xylostella (diamond back moth). Kind of experiment: Plutella xylostella L2 larvae test on artificial diet. Particulars: 144 h, 200 ppm (concentration in well 18 ppm), 6 days, larval mortality and growth regulation. As for the experimental part:
24-well microtiter plate (MTP) with artificial diet was treated with test solutions at an application rate of 200 ppm (concentration in well 18 ppm) by pipetting. After drying, the MTPs were infested with L2 larvae (7-12 per well). After an incubation period of 6 days, samples were checked for larval mortality and growth regulation.

Experiment [3] has as its system Spodoptera littoralis (Egyptian cotton leafworm). Nature of the experiment: Spodoptera littoralis cotton leaf disc spray test. Particulars: foliar, 72 h, cotton leaf discs sprayed at 200 ppm, 5 L1 larvae, mortality, feeding behavior, growth regulation 3 days after treatment. An excerpt: Cotton leaf discs were placed on agar in a 24-well microtiter plate and sprayed with test solutions at an application rate of 200 ppm. After drying, the leaf discs were infested with 5 L1 larvae. The samples were checked for mortality, feeding behavior, and growth regulation 3 days after treatment (DAT).

Experiment [4] relates to Heliothis virescens (tobacco budworm). Kind of experiment: Heliothis virescens egg test on artificial diet. Particulars: 96 h, 200 ppm (concentration in well 18 ppm), eggs 0-24 h old, 4 days, egg mortality, larval mortality, growth regulation. As to the method:
Eggs (0-24 h old) were placed in 24-well microtiter plate on artificial diet and treated with test solutions at an application rate of 200 ppm (concentration in well 18 ppm) by pipetting. After an incubation period of 4 days, samples were checked for egg mortality, larval mortality, and growth regulation.

The pest or weed control is how far the test organism was held down. Take `CCCCNC(=O)c1ccc(C2=CC(c3cc(Cl)cc(Cl)c3)(C(F)(F)F)OC2)cc1C` (stereo not shown) [Compound A5]: the pest or weed control at 200 ppm in experiment [1], in experiment [2], in experiment [3] and in experiment [4] was at least 80% in each case.

For `COCC(C)NC(=O)c1ccc(C2=CC(c3cc(Cl)cc(Cl)c3)(C(F)(F)F)OC2)cc1C` (stereo not shown) [Compound A6], the pest or weed control at 200 ppm in experiment [1], in experiment [2], in experiment [3] and in experiment [4] was at least 80% throughout.

As for `Cc1cc(C2=CC(c3cc(Cl)cc(Cl)c3)(C(F)(F)F)OC2)ccc1C(=O)NCc1ccccc1` (stereo not shown) [Compound A8], the pest or weed control at 200 ppm in experiment [1] was at least 80%.

In the case of `Cc1cc(C2=CC(c3cc(Cl)cc(Cl)c3)(C(F)(F)F)OC2)ccc1C(=O)NC1CCCCC1C` (stereo not shown) [Compound A32], the pest or weed control at 200 ppm in experiment [1] and in experiment [2] was at least 80% each time.

As for `Cc1cc(C2=CC(c3cc(Cl)cc(Cl)c3)(C(F)(F)F)OC2)ccc1C(=O)NCCc1ccccc1` (stereo not shown) [Compound A39], the pest or weed control at 200 ppm in experiment [1], in experiment [2] and in experiment [4] was at least 80% in each case.

Consider `Cc1cc(C2=CC(c3cc(Cl)cc(Cl)c3)(C(F)(F)F)OC2)ccc1C(=O)NCCc1cccs1` (stereo not shown) [Compound A41], for which the pest or weed control at 200 ppm in experiment [1] and in experiment [2] was at least 80% in each case.

Take `Cc1cc(C2=CC(c3cc(Cl)cc(Cl)c3)(C(F)(F)F)OC2)ccc1C(=O)NCCOc1ccccc1` (stereo not shown) [Compound A42]: the pest or weed control at 200 ppm in experiment [1], in experiment [3] and in experiment [4] was at least 80% in each case.

In turn, `Cc1cc(C2=CC(c3cc(Cl)cc(Cl)c3)(C(F)(F)F)OC2)ccc1C(=O)NCc1ccccc1C(F)(F)F` (stereo not shown) [Compound A48] came in with a pest or weed control at 200 ppm in experiment [1] of at least 80%.

In experiment [1], `Cc1cc(C2=CC(c3cc(Cl)cc(Cl)c3)(C(F)(F)F)OC2)ccc1C(=O)NCc1ccccc1N1CCCCC1` (stereo not shown) [Compound A50] yielded a pest or weed control at 200 ppm of at least 80%.

Take `Cc1cc(C2=CC(c3cc(Cl)cc(Cl)c3)(C(F)(F)F)OC2)ccc1C(=O)NC1CCN(Cc2ccccc2)C1` (stereo not shown) [Compound A53]: the pest or weed control at 200 ppm in experiment [1] and in experiment [3] was at least 80% throughout.

With `Cc1cc(C2=CC(c3cc(Cl)cc(Cl)c3)(C(F)(F)F)OC2)ccc1C(=O)NCCN1CCN(Cc2ccccc2)CC1` (stereo not shown) [Compound A54], the pest or weed control at 200 ppm in experiment [1] and in experiment [4] was at least 80% in each case.

Consider `Cc1cc(C2=CC(c3cc(Cl)cc(Cl)c3)(C(F)(F)F)OC2)ccc1C(=O)Nc1ccc(-n2cccc2)cc1` (stereo not shown) [Compound A61], for which the pest or weed control at 200 ppm in experiment [1] is at least 80%.

Turning to `Cc1cc(C2=CC(c3cc(Cl)cc(Cl)c3)(C(F)(F)F)OC2)ccc1C(=O)Nc1ccc2c(C)cc(=O)oc2c1` (stereo not shown) [Compound A65], the pest or weed control at 200 ppm in experiment [1] was at least 80%.

With `Cc1cc(C2=CC(c3cc(Cl)cc(Cl)c3)(C(F)(F)F)OC2)ccc1C(=O)Nc1ccc(S(=O)(=O)N(C)C)cc1` (stereo not shown) [Compound A66], the pest or weed control at 200 ppm in experiment [1] and in experiment [4] was at least 80% throughout.

With `Cc1cc(NC(=O)c2ccc(C3=CC(c4cc(Cl)cc(Cl)c4)(C(F)(F)F)OC3)cc2C)n(C)n1` (stereo not shown) [Compound A67], the pest or weed control at 200 ppm in experiment [2], in experiment [3] and in experiment [4] was at least 80% throughout.

Turning to `Cc1cc(O)nc(NC(=O)c2ccc(C3=CC(c4cc(Cl)cc(Cl)c4)(C(F)(F)F)OC3)cc2C)n1` (stereo not shown) [Compound A69], the pest or weed control at 200 ppm in experiment [1], in experiment [2] and in experiment [4] was at least 80% each time.

On to `Cc1cc(C2=CC(c3cc(Cl)cc(Cl)c3)(C(F)(F)F)OC2)ccc1C(=O)Nc1ncnc2[nH]cnc12` (stereo not shown) [Compound A72], for which the pest or weed control at 200 ppm in experiment [3] was at least 80%.

In experiment [1], `Cc1nnc(NC(=O)c2ccc(C3=CC(c4cc(Cl)cc(Cl)c4)(C(F)(F)F)OC3)cc2C)s1` (stereo not shown) [Compound A75] showed a pest or weed control at 200 ppm of at least 80%.

For `O=C(NCC(F)(F)F)c1ccc(C2=CC(c3cc(Cl)cc(Cl)c3)(C(F)(F)F)OC2)nc1` (stereo not shown) [Compound B1], in experiment [2], the pest or weed control at 200 ppm was at least 80%.

As to `CCNC(=O)c1ccc(C2=CC(c3cc(Cl)cc(Cl)c3)(C(F)(F)F)OC2)nc1` (stereo not shown) [Compound B2], the pest or weed control at 200 ppm in experiment [1] was at least 80%.

Take `O=C(CNC(=O)c1ccc(C2=CC(c3cc(Cl)cc(Cl)c3)(C(F)(F)F)OC2)nc1)NCC(F)(F)F` (stereo not shown) [Compound B5]: in experiment [4], the pest or weed control at 200 ppm was at least 80%.

`O=C(NCCC(F)(F)F)c1ccc(C2=CC(c3cc(Cl)cc(Cl)c3)(C(F)(F)F)OC2)nc1` (stereo not shown) [Compound B6] had a pest or weed control at 200 ppm in experiment [1] of at least 80%.

`CCC(C)NC(=O)c1ccc(C2=CC(c3cc(Cl)cc(Cl)c3)(C(F)(F)F)OC2)nc1` (stereo not shown) [Compound B7] gave a pest or weed control at 200 ppm in experiment [2] of at least 80%.

Molecule `O=C(NCC1CCCO1)c1ccc(C2=CC(c3cc(Cl)cc(Cl)c3)(C(F)(F)F)OC2)nc1` (stereo not shown) [Compound B8] registered a pest or weed control at 200 ppm in experiment [2] of at least 80%.

The molecule `COc1ccc(CNC(=O)c2ccc(C3=CC(c4cc(Cl)cc(Cl)c4)(C(F)(F)F)OC3)nc2)cc1` (stereo not shown) [Compound B12] registered a pest or weed control at 200 ppm in experiment [1] of at least 80%.

In turn, `O=C(NCc1ccc(Cl)nc1)c1ccc(C2=CC(c3cc(Cl)cc(Cl)c3)(C(F)(F)F)OC2)nc1` (stereo not shown) [Compound B14] showed a pest or weed control at 200 ppm in experiment [4] of at least 80%.

Turning to `CC1(NC(=O)c2ccc(C3=CC(c4cc(Cl)cc(Cl)c4)(C(F)(F)F)OC3)nc2)CSC1` (stereo not shown) [Compound B19], the pest or weed control at 200 ppm in experiment [1] was at least 80%.

As for `O=C(NC1CCC1)c1ccc(C2=CC(c3cc(Cl)cc(Cl)c3)(C(F)(F)F)OC2)nc1` (stereo not shown) [Compound B23], the pest or weed control at 200 ppm in experiment [2] was at least 80%.

Consider `Cc1nc(C2=CC(c3cc(Cl)cc(Cl)c3)(C(F)(F)F)OC2)ccc1C(=O)NCCC(F)(F)F` (stereo not shown) [Compound C6], for which the pest or weed control at 200 ppm in experiment [1], in experiment [2] and in experiment [3] was at least 80% in each case.

On to `Cc1nc(C2=CC(c3cc(Cl)cc(Cl)c3)(C(F)(F)F)OC2)ccc1C(=O)NCC1CCCO1` (stereo not shown) [Compound C8], for which the pest or weed control at 200 ppm in experiment [1], in experiment [3] and in experiment [4] was at least 80% throughout.

`Cc1nc(C2=CC(c3cc(Cl)cc(Cl)c3)(C(F)(F)F)OC2)ccc1C(=O)Nc1cccc(F)c1` (stereo not shown) [Compound C15]: the pest or weed control at 200 ppm in experiment [2], in experiment [3] and in experiment [4] was at least 80% throughout.

For `Cc1cc(NC(=O)c2ccc(C3=CC(c4cc(Cl)cc(Cl)c4)(C(F)(F)F)OC3)nc2C)n(C)n1` (stereo not shown) [Compound C16], the pest or weed control at 200 ppm in experiment [2] and in experiment [4] was at least 80% in each case.

Regarding `CSCC(C)(C)NC(=O)c1ccc(C2=CC(c3cc(Cl)cc(Cl)c3)(C(F)(F)F)OC2)nc1C` (stereo not shown) [Compound C18], the pest or weed control at 200 ppm in experiment [1] and in experiment [3] was at least 80% throughout.

In turn, `CCCCNC(=O)c1ccc(C2=CC(c3cc(Cl)cc(Cl)c3)(C(F)(F)F)OC2=O)cc1C` (stereo not shown) [Compound E3] gave a pest or weed control at 200 ppm in experiment [2] of at least 80%.

In the case of `Cc1cc(C2=CC(c3cc(Cl)cc(Cl)c3)(C(F)(F)F)OC2=O)ccc1C(=O)NCCC(F)(F)F` (stereo not shown) [Compound E6], the pest or weed control at 200 ppm in experiment [2] and in experiment [3] was at least 80% throughout.

In experiment [3], `Cc1cc(C2=CC(c3cc(Cl)cc(Cl)c3)(C(F)(F)F)OC2=O)ccc1C(=O)NCc1ccccc1` (stereo not shown) [Compound E8] came in with a pest or weed control at 200 ppm of at least 80%.

As for `Cc1cc(C2=CC(c3cc(Cl)cc(Cl)c3)(C(F)(F)F)OC2=O)ccc1C(=O)NCc1ccccc1F` (stereo not shown) [Compound E9], the pest or weed control at 200 ppm in experiment [2] is at least 80%.

With `COc1ccc(CNC(=O)c2ccc(C3=CC(c4cc(Cl)cc(Cl)c4)(C(F)(F)F)OC3=O)cc2C)cc1` (stereo not shown) [Compound E11], the pest or weed control at 200 ppm in experiment [2] is at least 80%.

Take `Cc1cc(C2=CC(c3cc(Cl)cc(Cl)c3)(C(F)(F)F)OC2=O)ccc1C(=O)NCc1ccccn1` (stereo not shown) [Compound E13]: the pest or weed control at 200 ppm in experiment [1], in experiment [2] and in experiment [3] was at least 80% each time.

In the case of `Cc1csc(NC(=O)c2ccc(C3=CC(c4cc(Cl)cc(Cl)c4)(C(F)(F)F)OC3=O)cc2C)n1` (stereo not shown) [Compound E15], the pest or weed control at 200 ppm in experiment [1] and in experiment [3] was at least 80% throughout.

As for `Cc1cc(C2=CC(c3cc(Cl)cc(Cl)c3)(C(F)(F)F)OC2=O)ccc1C(=O)NC1CSC1` (stereo not shown) [Compound E17], the pest or weed control at 200 ppm in experiment [1] was at least 80%.

In experiment [3], `Cc1cc(C2=CC(c3cc(Cl)cc(Cl)c3)(C(F)(F)F)OC2=O)ccc1C(=O)NC1C[S+]([O-])C1` (stereo not shown) [Compound E19] displayed a pest or weed control at 200 ppm of at least 80%.
